In patent publication US20230097253A1, “NOVEL QUINAZOLINE COMPOUND AS THERAPEUTIC AGENT FOR METABOLIC DISORDERS” (BIOWAY., INC, priority 2020, published 2023):

Tests used:
DIAMOND™ mouse model [1] = experiment: Insulin resistance test; format: in vivo; conditions: insulin 0.75 UU/kg intraperitoneally after 6 hours fasting; at 0 and 90 minutes, statistical significance vs control group (VC); FIG. 20
Procedure: (§1) The DIAMOND™ mouse model, an animal model prepared using a Western diet and sugar water, was used. The DIAMOND™ mice were induced with WDSW for 14 weeks, and 12 mice were used for the control group and 12 mice for the BW-3290 treatment group, and BW-3290 was orally administered at 16 mg/kg once daily for 8 weeks. An autopsy was performed at week 22, and blood collection and tissue storage were performed for the individuals in each group.
The insulin resistance test was performed one week before autopsy, and the subject was fasted for 6 hours.
Insulin was injected intraperitoneally at a concentration of 0.75 UU/kg, and the blood was collected 15 minutes, 30 minutes, 45 minutes, and 90 minutes after the injection, and the blood glucose levels were measured using the OneTouch Plus Ultra Glucometer and glucose scores were evaluated therefrom.

[2] = test system: Huh7 cells induced with inflammatory response; experiment: Protein expression levels in liver cells induced with inflammatory response (western blot); format: cell-based; conditions: Huh7 cells pretreated with 10 ng/ml IL-1β; 0.5, 2.5, 10 μM, 24 hours; FIG. 11
Procedure: To induce steatosis in Huh-7 cells in each well except for control cells, the Huh-7 cells were pretreated with 10 ng/ml IL-1p for 2 hr except for the control.
The cells in each well were treated with the compound of the present invention, BW-3290, 0.5 μM, 2.5 μM, and 10 μM and then cultured for 24 hours. All media were aspirated and the cells were gently washed 3 times with cold PBS.
A cold lysis buffer containing 150 mM sodium chloride (NaCl), 5 mM ethylenediaminetetraacetic acid (EDTA), pH 8.0, […] 4-(2-hydroxyethyl)-1-piperazineethanesulfonic acid (HEPES), 1% nonylphenoxypolyethoxylethanol (NP-40), 2 μg/mL aprotinin, 1 μM pepstatin A, 10 μM leupeptin, 1 mM sodium fluoride (NaF), 0.2 mM sodium orthovanadate ([…]), and 1 μM phenylmethylsulfonyl fluoride (PMSF) was added thereto.
A whole cell lysate was collected and gently pipetted at least 10 times to ensure complete lysis. The sample was incubated on ice for 20 minutes and centrifuged 4° C. at 13,000 rpm, for 20 minutes. The supernatant was collected, 5× sodium dodecyl sulfate (SDS) sample buffer containing 50 mM Tris-CI (pH 6.8), 2% SDS, 0.1% bromopheol blue, and 10% glycerol was added to the sample, and boiled at 95° C. for 5 minutes. […]
Images were acquired using an ImageQuant LAS 3000 (Fujifilm, Tokyo, Japan). Data were analyzed.

DIAMOND™ mouse model [3] = experiment: In-vivo activity, histopathological diagnosis (H&E and Oil-Red-O staining of liver tissue); conditions: DIAMOND mice, 16 mg/kg oral once daily for 8 weeks, FIG. 18
Procedure: as §1
Hematoxylin & Eosin (H&E) staining and Oil-Red-O (ORO) staining were performed using liver tissue obtained after autopsy

**Q.** What does the source list for `CC(C)C(Nc1ncnc2nc[nH]c12)c1nc2cccc(Cl)c2c(=O)n1-c1ccccc1` (centres unmarked) [BW-3290, 2-(1-((7H-purin-6-yl)amino)-2-methylpropyl)-5-chloro-3-phenylquinazolin-4(3H)-one]?
**A.** glucose score (DIAMOND™ mouse model [1]): decreased; protein expression level of p-IKKα [2]: decreased in a concentration-dependent manner; protein expression level of p-NFκ [2]: decreased in a concentration-dependent manner; fat cells stained in red in liver tissue, ORO staining (DIAMOND™ mouse model [3]; compared to the control group (VC)): reduced; fat globules in liver tissue, H&E staining (DIAMOND™ mouse model [3]; compared to the control group): reduced
